Experimental data reported in article PMC7761077, “Differential Effects of Cancer-Associated Mutations Enriched in Helix H3 of PPARγ” (Cancers, 2020).

Columns and labels:
PPARγ LBD Q286E = molecular target: T1, PPARγ LBD Q286E (Homo sapiens, UniProt P37231, Q314E); experiment: ITC binding of endogenous ligands to PPARγ LBD Q286E; conditions: PBS pH 7.2, 25 °C, ligand 0.9 mM
T1 construct: PPARγ LBD (residues 195–477 in PPARγ1 numbering) was cloned into the expression vector pET-28b(+); made in house; host or cells: Escherichia coli Rosetta 2(DE3)
T1 sequence (P37231 195-477 isoform P37231-2 Q286E): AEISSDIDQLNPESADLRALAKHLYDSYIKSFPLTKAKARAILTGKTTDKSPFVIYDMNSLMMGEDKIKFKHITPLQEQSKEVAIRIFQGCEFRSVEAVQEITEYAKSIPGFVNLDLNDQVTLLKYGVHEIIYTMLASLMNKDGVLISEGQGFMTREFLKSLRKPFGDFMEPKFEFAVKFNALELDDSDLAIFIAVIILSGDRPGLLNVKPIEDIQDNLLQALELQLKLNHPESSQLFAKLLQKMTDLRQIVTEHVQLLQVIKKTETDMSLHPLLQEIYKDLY
Method: (§1) Since PPARγ is physiologically regulated by endogenous ligands, it is possible that the activation of PPARγ mutants would be induced upon binding to known endogenous PPARγ ligands. […] […]. […] […].
(§2) All the measurements were conducted in the buffer of PBS pH 7.2 at 25 °C. The ligands filled in the syringe were titrated into the proteins in the cell using 19 injections of 2 μL and an initial injection of 0.4 μL with 150 s equilibration between injections. The final protein concentrations of PPARγ LBD WT and mutants were 60 μM for 15d-PGJ2 at the ligand concentration of 900 μM and 45 μM for 13S-HODE at the ligand concentration of 900 μM, respectively. The obtained data were analyzed using Origin 7.0 software.

PPARγ LBD R288C = molecular target: T2, PPARγ LBD R288C (Homo sapiens, UniProt P37231, R316C); experiment: ITC binding of endogenous ligands to PPARγ LBD R288C; conditions: PBS pH 7.2, 25 °C, ligand 0.9 mM
T2 construct: PPARγ LBD (residues 195–477 in PPARγ1 numbering) was cloned into the expression vector pET-28b(+); made in house; host or cells: Escherichia coli Rosetta 2(DE3)
T2 sequence (P37231 195-477 isoform P37231-2 R288C): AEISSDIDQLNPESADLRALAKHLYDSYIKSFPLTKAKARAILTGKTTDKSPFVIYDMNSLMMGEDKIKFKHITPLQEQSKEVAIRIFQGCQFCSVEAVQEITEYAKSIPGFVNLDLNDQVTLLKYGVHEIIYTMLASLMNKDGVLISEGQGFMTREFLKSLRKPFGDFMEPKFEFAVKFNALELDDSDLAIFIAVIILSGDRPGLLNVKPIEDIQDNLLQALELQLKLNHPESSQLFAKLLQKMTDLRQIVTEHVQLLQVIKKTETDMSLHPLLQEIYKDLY
Method: as §1, §2

PPARγ LBD Q286P = molecular target: T3, PPARγ LBD Q286P (Homo sapiens, UniProt P37231, Q314P); experiment: ITC binding of endogenous ligands to PPARγ LBD Q286P; conditions: PBS pH 7.2, 25 °C, ligand 0.9 mM
T3 construct: PPARγ LBD (residues 195–477 in PPARγ1 numbering) was cloned into the expression vector pET-28b(+); made in house; host or cells: Escherichia coli Rosetta 2(DE3)
T3 sequence (P37231 195-477 isoform P37231-2 Q286P): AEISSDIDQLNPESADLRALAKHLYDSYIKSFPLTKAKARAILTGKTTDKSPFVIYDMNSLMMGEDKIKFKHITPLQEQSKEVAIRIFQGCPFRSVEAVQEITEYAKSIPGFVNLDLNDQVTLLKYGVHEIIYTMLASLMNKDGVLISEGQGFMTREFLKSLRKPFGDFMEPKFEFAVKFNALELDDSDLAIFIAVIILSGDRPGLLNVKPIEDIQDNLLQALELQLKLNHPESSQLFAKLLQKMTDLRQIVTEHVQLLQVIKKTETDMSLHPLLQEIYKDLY
Method: as §1, §2

PPARγ LBD F287Y = molecular target: T4, PPARγ LBD F287Y (Homo sapiens, UniProt P37231, F315Y); experiment: ITC binding of endogenous ligands to PPARγ LBD F287Y; conditions: PBS pH 7.2, 25 °C, ligand 0.9 mM
T4 construct: PPARγ LBD (residues 195–477 in PPARγ1 numbering) was cloned into the expression vector pET-28b(+); made in house; host or cells: Escherichia coli Rosetta 2(DE3)
T4 sequence (P37231 195-477 isoform P37231-2 F287Y): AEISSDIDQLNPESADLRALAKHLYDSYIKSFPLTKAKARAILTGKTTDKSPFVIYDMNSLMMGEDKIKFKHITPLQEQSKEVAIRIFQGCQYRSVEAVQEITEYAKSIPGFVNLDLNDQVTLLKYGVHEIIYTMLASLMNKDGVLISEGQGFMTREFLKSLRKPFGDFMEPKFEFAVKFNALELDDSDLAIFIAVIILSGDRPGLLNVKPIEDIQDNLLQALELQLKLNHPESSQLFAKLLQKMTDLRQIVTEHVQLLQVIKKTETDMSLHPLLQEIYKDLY
Method: as §1, §2

PPARγ LBD S289C = molecular target: T5, PPARγ LBD S289C (Homo sapiens, UniProt P37231, S317C); experiment: ITC binding of endogenous ligands to PPARγ LBD S289C; conditions: PBS pH 7.2, 25 °C, ligand 0.9 mM
T5 construct: PPARγ LBD (residues 195–477 in PPARγ1 numbering) was cloned into the expression vector pET-28b(+); made in house; host or cells: Escherichia coli Rosetta 2(DE3)
T5 sequence (P37231 195-477 isoform P37231-2 S289C): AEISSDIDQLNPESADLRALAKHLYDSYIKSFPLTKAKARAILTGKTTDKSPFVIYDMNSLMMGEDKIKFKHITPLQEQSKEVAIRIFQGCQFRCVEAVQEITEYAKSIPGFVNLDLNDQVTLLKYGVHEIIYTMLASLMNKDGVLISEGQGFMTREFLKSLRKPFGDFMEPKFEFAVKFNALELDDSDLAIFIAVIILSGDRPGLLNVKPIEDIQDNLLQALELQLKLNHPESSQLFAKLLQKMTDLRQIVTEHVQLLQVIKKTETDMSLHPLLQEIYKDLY
Method: as §1, §2

PPARγ LBD WT = molecular target: T6, PPARγ LBD WT (Homo sapiens, UniProt P37231); experiment: ITC binding of endogenous ligands to PPARγ LBD WT; conditions: PBS pH 7.2, 25 °C, ligand 0.9 mM
T6 construct: PPARγ LBD (residues 195–477 in PPARγ1 numbering) was cloned into the expression vector pET-28b(+); made in house; host or cells: Escherichia coli Rosetta 2(DE3)
T6 sequence (P37231 195-477 isoform P37231-2): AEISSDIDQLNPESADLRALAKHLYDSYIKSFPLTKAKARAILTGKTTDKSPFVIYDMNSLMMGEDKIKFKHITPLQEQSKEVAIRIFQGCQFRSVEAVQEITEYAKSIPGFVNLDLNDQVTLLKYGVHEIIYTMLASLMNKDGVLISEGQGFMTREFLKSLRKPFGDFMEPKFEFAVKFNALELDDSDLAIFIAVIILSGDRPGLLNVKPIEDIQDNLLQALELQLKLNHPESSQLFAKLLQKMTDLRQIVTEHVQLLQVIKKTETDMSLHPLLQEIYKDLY
Method: as §1, §2

PPARγ LBD R280C = molecular target: T7, PPARγ LBD R280C (Homo sapiens, UniProt P37231, R308C); experiment: ITC binding of endogenous ligands to PPARγ LBD R280C; conditions: PBS pH 7.2, 25 °C, ligand 0.9 mM
T7 construct: PPARγ LBD (residues 195–477 in PPARγ1 numbering) was cloned into the expression vector pET-28b(+); made in house; host or cells: Escherichia coli Rosetta 2(DE3)
T7 sequence (P37231 195-477 isoform P37231-2 R280C): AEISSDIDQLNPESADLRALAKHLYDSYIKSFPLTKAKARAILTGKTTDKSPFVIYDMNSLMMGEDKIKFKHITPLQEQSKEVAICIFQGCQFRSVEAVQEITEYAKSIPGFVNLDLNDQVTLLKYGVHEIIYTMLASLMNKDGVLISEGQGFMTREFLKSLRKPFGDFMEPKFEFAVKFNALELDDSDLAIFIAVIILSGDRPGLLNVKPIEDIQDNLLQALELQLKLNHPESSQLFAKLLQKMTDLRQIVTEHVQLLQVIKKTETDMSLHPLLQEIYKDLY
Method: as §1, §2

PPARγ LBD R288H = molecular target: T8, PPARγ LBD R288H (Homo sapiens, UniProt P37231, R316H); experiment: ITC binding of endogenous ligands to PPARγ LBD R288H; conditions: PBS pH 7.2, 25 °C, ligand 0.9 mM
T8 construct: PPARγ LBD (residues 195–477 in PPARγ1 numbering) was cloned into the expression vector pET-28b(+); made in house; host or cells: Escherichia coli Rosetta 2(DE3)
T8 sequence (P37231 195-477 isoform P37231-2 R288H): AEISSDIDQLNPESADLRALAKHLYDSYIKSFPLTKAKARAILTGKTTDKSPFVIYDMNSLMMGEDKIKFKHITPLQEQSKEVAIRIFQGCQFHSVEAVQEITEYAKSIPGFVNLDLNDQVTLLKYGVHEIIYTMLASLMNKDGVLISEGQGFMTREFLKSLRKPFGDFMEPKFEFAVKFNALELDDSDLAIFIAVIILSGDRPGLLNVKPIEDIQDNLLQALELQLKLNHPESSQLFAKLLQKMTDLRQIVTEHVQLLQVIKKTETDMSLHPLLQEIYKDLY
Method: as §1, §2

PPARγ LBD C285Y = molecular target: T9, PPARγ LBD C285Y (Homo sapiens, UniProt P37231, C313Y); experiment: ITC binding of endogenous ligands to PPARγ LBD C285Y; conditions: PBS pH 7.2, 25 °C, ligand 0.9 mM
T9 construct: PPARγ LBD (residues 195–477 in PPARγ1 numbering) was cloned into the expression vector pET-28b(+); made in house; host or cells: Escherichia coli Rosetta 2(DE3)
T9 sequence (P37231 195-477 isoform P37231-2 C285Y): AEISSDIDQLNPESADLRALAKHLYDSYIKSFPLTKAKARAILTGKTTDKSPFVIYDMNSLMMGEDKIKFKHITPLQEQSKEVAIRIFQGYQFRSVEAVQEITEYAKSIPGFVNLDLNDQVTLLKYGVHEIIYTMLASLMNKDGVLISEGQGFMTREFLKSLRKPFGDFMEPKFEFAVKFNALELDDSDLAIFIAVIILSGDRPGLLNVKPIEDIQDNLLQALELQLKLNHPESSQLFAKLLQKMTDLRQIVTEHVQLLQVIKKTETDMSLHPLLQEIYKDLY
Method: as §1, §2

[1] = molecular target: MED1 co-activator peptide containing the LXXLL motif; experiment: SPR; MED1 peptide amine-coupled to a CM5 chip (about 60 RU); PPARγ LBD WT or mutant injected at 78 nM to 10 μM, 30 μL/min, 120 s, dissociation 400 s; Biacore T200, 25 °C; 50 mM Tris-HCl pH 7.5, 150 mM NaCl, 1 mM TCEP, 0.005% tween 20; 1:1 Langmuir model

Compound | Kd (PPARγ LBD Q286E) [µM] | Kd (PPARγ LBD R288C) [µM] | Kd (PPARγ LBD Q286P) [µM] | Kd (PPARγ LBD F287Y) [µM] | Kd (PPARγ LBD S289C) [µM] | Kd (PPARγ LBD WT) [µM] | Kd (PPARγ LBD R280C) [µM] | Kd (PPARγ LBD R288H) [µM] | Kd (PPARγ LBD C285Y) [µM] | Kd [1] [µM]
CCCCC[C@H](O)/C=C/C=C\CCCCCCCC(=O)O [13S-HODE, 13S-hydroxy-9Z,11E-octadecadienoic acid] | 45.9 | > 201 | > 201 | 27.7 | > 201 | 14.6 | > 201 | 67.1 | 42.7 | 
CCCCCC=CC=C1C(=O)C=C[C@@H]1CC=CCCCC(=O)O [15d-PGJ2, 15-deoxy-∆^12,14-prostaglandin J2] |  |  | 201 | 65.3 | 42.9 | 51 | > 201 | > 201 | 162 | 
PPARγ LBD Q286E (from UniProt P37231-2 195-477) (domain or fragment) |  |  |  |  |  |  |  |  |  | 5.61
